Results: patent US12612407B2, “Imidazo[2,1-f][1,2,4]triazin-4-amine derivatives as TLR7 agonist” (BEIGENE, LTD., priority 2020, dated 2026)

The compounds below were run against T1, human TLR7 (Homo sapiens, UniProt Q9NYK1) (assay: HEK293-Blue hTLR7 Reporter Assay (QUANTI-BLUE, SEAP readout)). Conditions: HEK-Blue-hTLR7 cells, 24 hrs treatment, Table 1, B1-B232.
T1 construct: host or cells: HEK293 (HEK-Blue hTLR7)
T1 sequence (Q9NYK1 27-1049): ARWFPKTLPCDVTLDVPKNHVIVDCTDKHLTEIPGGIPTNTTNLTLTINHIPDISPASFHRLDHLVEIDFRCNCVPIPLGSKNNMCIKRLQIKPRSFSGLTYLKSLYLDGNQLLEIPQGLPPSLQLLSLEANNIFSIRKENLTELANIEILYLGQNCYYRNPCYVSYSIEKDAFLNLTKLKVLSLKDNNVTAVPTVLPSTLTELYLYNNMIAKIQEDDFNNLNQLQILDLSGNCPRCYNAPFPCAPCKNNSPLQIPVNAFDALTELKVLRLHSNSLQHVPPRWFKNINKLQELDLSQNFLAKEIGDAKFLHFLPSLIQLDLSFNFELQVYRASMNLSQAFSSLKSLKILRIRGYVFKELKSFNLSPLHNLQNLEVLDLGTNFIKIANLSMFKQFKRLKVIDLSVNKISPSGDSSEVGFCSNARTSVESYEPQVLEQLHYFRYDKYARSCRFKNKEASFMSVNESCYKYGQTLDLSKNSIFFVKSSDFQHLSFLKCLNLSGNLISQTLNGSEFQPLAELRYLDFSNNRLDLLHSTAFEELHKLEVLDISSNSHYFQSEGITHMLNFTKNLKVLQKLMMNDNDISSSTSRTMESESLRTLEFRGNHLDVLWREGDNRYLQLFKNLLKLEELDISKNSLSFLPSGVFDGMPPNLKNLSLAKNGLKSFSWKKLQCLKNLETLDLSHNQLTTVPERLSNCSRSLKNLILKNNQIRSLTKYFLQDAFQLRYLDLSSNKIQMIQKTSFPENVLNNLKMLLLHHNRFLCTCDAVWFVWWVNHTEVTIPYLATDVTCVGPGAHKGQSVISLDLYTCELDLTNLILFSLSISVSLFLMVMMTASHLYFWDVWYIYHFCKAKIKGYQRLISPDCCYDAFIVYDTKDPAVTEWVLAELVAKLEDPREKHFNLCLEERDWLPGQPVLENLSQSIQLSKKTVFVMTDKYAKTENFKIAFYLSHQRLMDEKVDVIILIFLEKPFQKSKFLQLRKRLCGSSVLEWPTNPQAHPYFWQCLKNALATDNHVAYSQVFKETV
Format: cell-based
Summary of the method: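 HEK-Blue-hTLR7 cells expressing NF-κB/AP-1-driven SEAP, 4×10^4 cells/well, treated 24 h at 37° C with increasing compound concentrations. Supernatant SEAP measured with Quanti-blue substrate (10-30 min, 37° C) at 620-655 nm; EC50 from sigmoidal dose-response fit.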

EC50 [nM]	SMILES
902	Cc1cc(Cc2cnc3c(N)nc(OCC4CCOC4)nn23)cnc1N1CCNCC1 (stereo not shown) [Compound B193, 7-((5-methyl-6-(piperazin-1-yl)pyridin-3-yl)methyl)-2-((tetrahydrofuran-3-yl)methoxy)imidazo[2,1-f][1,2,4]triazin-4-amine]
80	Cc1cc(Cc2cnc3c(N)nc(OCC4CCOCC4)nn23)cnc1N1CCNCC1 [Compound B194, 7-((5-methyl-6-(piperazin-1-yl)pyridin-3-yl)methyl)-2-((tetrahydro-2H-pyran-4-yl)methoxy)imidazo[2,1-f][1,2,4]triazin-4-amine]
5.7	CCCC(CCC)Nc1nc(N)c2ncc(Cc3cnc(N4CCN(C(=O)CNC)CC4)c(C)c3)n2n1 [Compound B196, 1-(4-(5-((4-amino-2-(heptan-4-ylamino)imidazo[2,1-f] [1,2,4]triazin-7-yl)methyl)-3-methylpyridin-2-yl)piperazin-1-yl)-2-(methylamino)ethan-1-one]
3.9	CCCC(CCC)Oc1nc(N)c2ncc(Cc3cnc(N4CCN(C(=O)CNC)CC4)c(C)c3)n2n1 [Compound B197, 1-(4-(5-((4-amino-2-(heptan-4-yloxy)imidazo[2,1-f][1,2,4]triazin-7-yl)methyl)-3-methylpyridin-2-yl)piperazin-1-yl)-2-(methylamino)ethan-1-one]
4.1	CCCC(CCC)Oc1nc(N)c2ncc(Cc3cnc(N4CCC(CN(C)C)CC4)c(C)c3)n2n1 [Compound B198, 7-((6-(4-((dimethylamino)methyl)piperidin-1-yl)-5-methylpyridin-3-yl)methyl)-2-(heptan-4-yloxy)imidazo[2,1-f][1,2,4]triazin-4-amine]
8.1	CCC[C@H](C)Oc1nc(N)c2ncc(Cc3cnc(N4CCN(CCO)CC4)c(C)c3)n2n1 [Compound B199, (S)-2-(4-(5-((4-amino-2-(pentan-2-yloxy)imidazo[2,1-f][1,2,4]triazin-7-yl)methyl)-3-methylpyridin-2-yl)piperazin-1-yl)ethan-1-ol]
25	CCC(CC)Oc1nc(N)c2ncc(Cc3cnc(N4CCN(C(=O)CN(C)C)CC4)c(C)c3)n2n1 [Compound B200, 1-(4-(5-((4-amino-2-(pentan-3-yloxy)imidazo[2,1-f][1,2,4]triazin-7-yl)methyl)-3-methylpyridin-2-yl)piperazin-1-yl)-2-(dimethylamino)ethan-1-one]
28	CCC(CC)Oc1nc(N)c2ncc(Cc3cnc(N4CCN(C(=O)CNC)CC4)c(C)c3)n2n1 [Compound B201, 1-(4-(5-((4-amino-2-(pentan-3-yloxy)imidazo[2,1-f][1,2,4]triazin-7-yl)methyl)-3-methylpyridin-2-yl)piperazin-1-yl)-2-(methylamino)ethan-1-one]
7.3	CCCC(C)Nc1nc(N)c2ncc(Cc3cnc(N4CCC(CNC)CC4)c(C)c3)n2n1 (stereo not shown) [Compound B204, 7-((5-methyl-6-(4-((methylamino)methyl)piperidin-1-yl)pyridin-3-yl)methyl)-N2-(pentan-2-yl)imidazo[2,1-f][1,2,4]triazine-2,4-diamine]
6.5	CCCC(C)Oc1nc(N)c2ncc(Cc3cnc(N4CCC(CNC)CC4)c(C)c3)n2n1 (stereo not shown) [Compound B205, 7-((5-methyl-6-(4-((methylamino)methyl)piperidin-1-yl)pyridin-3-yl)methyl)-2-(pentan-2-yloxy)imidazo[2,1-f][1,2,4]triazin-4-amine]
5610	CNCC(C)Oc1nc(N)c2ncc(Cc3cnc(N4CCNCC4)c(C)c3)n2n1 (stereo not shown) [Compound B206, 7-((5-methyl-6-(piperazin-1-yl)pyridin-3-yl)methyl)-2-((1-(methylamino)propan-2-yl)oxy)imidazo[2,1-f][1,2,4]triazin-4-amine]
7.4	CCC(CC)Nc1nc(N)c2ncc(Cc3cnc(N4CCC(CN(C)C)CC4)c(C)c3)n2n1 [Compound B208, 7-((6-(4-((dimethylamino)methyl)piperidin-1-yl)-5-methylpyridin-3-yl)methyl)-N2-(pentan-3-yl)imidazo[2,1-f][1,2,4]triazine-2,4-diamine]
9.2	CCC(CC)Nc1nc(N)c2ncc(Cc3cnc(N4CCC(N(C)C)CC4)c(C)c3)n2n1 [Compound B209, 7-((6-(4-(dimethylamino)piperidin-1-yl)-5-methylpyridin-3-yl)methyl)-N2-(pentan-3-yl)imidazo[2,1-f][1,2,4]triazine-2,4-diamine]
12	CCC(CC)Nc1nc(N)c2ncc(Cc3cnc(N4CCNCC4)c(C)c3)n2n1 [Compound B210, 7-((5-methyl-6-(piperazin-1-yl)pyridin-3-yl)methyl)-N2-(pentan-3-yl)imidazo[2,1-f][1,2,4]triazine-2,4-diamine]
7.7	CCC(CC)Nc1nc(N)c2ncc(Cc3cnc(N4CCN(C(=O)CN(C)C)CC4)c(C)c3)n2n1 [Compound B211, 1-(4-(5-((4-amino-2-(pentan-3-ylamino)imidazo[2,1-f][1,2,4]triazin-7-yl)methyl)-3-methylpyridin-2-yl)piperazin-1-yl)-2-(dimethylamino)ethan-1-one]
6.2	CCC[C@H](C)Oc1nc(N)c2ncc(Cc3cnc(N4CCN(C(=O)CNCC(C)C)CC4)c(C)c3)n2n1 [Compound B212, (S)-1-(4-(5-((4-amino-2-(pentan-2-yloxy)imidazo[2,1-f][1,2,4]triazin-7-yl)methyl)-3-methylpyridin-2-yl)piperazin-1-yl)-2-(isobutylamino)ethan-1-one]
4.2	CCC[C@H](C)Oc1nc(N)c2ncc(Cc3cnc(N4CCC(NCC(C)C)CC4)c(C)c3)n2n1 [Compound B215, (S)-7-((6-(4-(isobutylamino)piperidin-1-yl)-5-methylpyridin-3-yl)methyl)-2-(pentan-2-yloxy)imidazo[2,1-f][1,2,4]triazin-4-amine]
1080	CC[C@@H](CCO)Oc1nc(N)c2ncc(Cc3cnc(N4CCNCC4)c(C)c3)n2n1 [Compound B216, (S)-3-((4-amino-7-((5-methyl-6-(piperazin-1-yl)pyridin-3-yl)methyl)imidazo[2,1-f][1,2,4]triazin-2-yl)oxy)pentan-1-ol]
2440	CC[C@H](O)CCOc1nc(N)c2ncc(Cc3cnc(N4CCNCC4)c(C)c3)n2n1 [Compound B217, (S)-1-((4-amino-7-((5-methyl-6-(piperazin-1-yl)pyridin-3-yl)methyl)imidazo[2,1-f][1,2,4]triazin-2-yl)oxy)pentan-3-ol]
46	CCCC(CCO)Oc1nc(N)c2ncc(Cc3cnc(N4CCN(C(=O)CNC)CC4)c(C)c3)n2n1 (stereo not shown) [Compound B218, 1-(4-(5-((4-amino-2-((1-hydroxyhexan-3-yl)oxy)imidazo[2,1-f][1,2,4]triazin-7-yl)methyl)-3-methylpyridin-2-yl)piperazin-1-yl)-2-(methylamino)ethan-1-one]
3.6	CCCC(CCC)Nc1nc(N)c2ncc(Cc3cnc(N4CCC(CNC)CC4)c(C)c3)n2n1 [Compound B220, N2-(heptan-4-yl)-7-((5-methyl-6-(4-((methylamino)methyl)piperidin-1-yl)pyridin-3-yl)methyl)imidazo[2,1-f][1,2,4]triazine-2,4-diamine]

SMILES	EC50 [nM]
CCCC(Oc1nc(N)c2ncc(Cc3cnc(N4CCNCC4)c(C)c3)n2n1)C1CC1 (stereo not shown) [Compound B202, 2-(1-cyclopropylbutoxy)-7-((5-methyl-6-(piperazin-1-yl)pyridin-3-yl)methyl)imidazo[2,1-f][1,2,4]triazin-4-amine]	15
